# Results from publication PMC9024338, “Bruceine H Mediates EGFR-TKI Drug Persistence in NSCLC by Notch3-Dependent β-Catenin Activating FOXO3a Signaling” (Frontiers in Oncology, 2022).
# Where two headings read alike, the source gives them in different places.
# Tests used:
# [1] = tested on: LO2 cells; assay: Toxicity to normal human cell line LO2 (Figure S1); type: cell-based
# Description: (§1) Figure S1. The toxicity of Bruceine H (BH) and Bruceine D (BD) to 16HBE (A) and LO2 (B) cells was evaluated.
# [2] = tested on: 16HBE cells; assay: Toxicity to normal human cell line 16HBE (Figure S1); type: cell-based
# Description: as §1
# [3] = tested on: PC-9 cells; assay: Apoptosis by flow cytometry (Annexin V-FITC/PI), PC-9; type: cell-based, human; details: PC-9, 48 h, various concentrations, relative to control
# Description: (§2) After being digested with trypsin without EDTA, the cells were washed gently with culture medium and twice with cold PBS. The pellet was resuspended in 400 μl of 1× binding buffer, the resuspended cells were transferred to flow tubes, then Annexin V-FITC (5 μl) and propidium iodide (10 μl) were added, and the mixture was incubated for 15 min at room temperature in the dark. The percentage of apoptotic cells was determined by flow cytometry (Backman, CA, USA) and FlowJo V10 software.
# [4] = tested on: PC-9/GR cells; assay: Apoptosis by flow cytometry (Annexin V-FITC/PI), PC-9/GR; type: cell-based, human; details: low-dose BH (4, 8 μM), gefitinib 25 μM, alone or combined
# Description: as §2
# [5] = tested on: A549 cells; assay: cells; type: cell-based, human; details: Homo sapiens
# Description: (§3) The human NSCLC cell lines (A549, PC-9, and PC-9/GR) and other cell lines (16HBE and LO2) were purchased from the American Type Culture Collection (ATCC, Manassas, VA, USA). […] All cell lines were cultivated at 37°C under 5% CO2.
# (§4) The Cell Counting Kit-8 assays (Beyotime, Shanghai, China) were performed to assess cell viability. […] Microplate readers (Infinite F500, Tecan, Mannedorf, Switzerland) were used to measure the absorbance (A) at 450 nm. All samples were assessed in triplicate.
# [6] = tested on: PC-9 cells; assay: cells; type: cell-based, human; details: Homo sapiens
# Description: as §3, §4
# [7] = tested on: A549 xenografts; assay: A549 xenografts in BALB/c nude mice; type: in vivo
# Description: The total proteins of cells and tissues were extracted with RIPA cleavage buffer containing a protease inhibitor cocktail, phenylmethylsulfonyl fluoride (PMSF, Solarbio). The cell lysates (20 μg) were run on SDS-polyacrylamide gel (6%–10%) and transferred to the polyvinylidene fluoride membrane (PVDF, Millipore, MA, USA) by electrophoresis. The membrane was blocked with 5% skim milk in TBST for 2 h, incubated overnight with the corresponding primary antibody at 4°C, and then incubated with the corresponding secondary antibody at room temperature for 2 h. The reaction products were detected by chemiluminescence by ECL Western Blotting Detection System. Finally, quantitative analysis was carried out with ImageJ software.
# The heart, liver, spleen, lung, kidney, and tumor tissues were embedded in paraffin, and the sections (4 µm) were stained with hematoxylin–eosin (H&E, Solarbio) and then examined and analyzed under a Leica DM6B microscope (Leica Microsystems, Wetzlar, Germany).
# The tumor section was dewaxed and repaired with antigen, 3% H2O2 was added, and then the section was sealed with 10% goat serum at room temperature for 30 min. The first antibody against Ki-67 and Notch3 (CST) was incubated overnight at 4°C, and the second antibody was incubated at room temperature for 30 min. After DAB staining, the sections were counterstained with hematoxylin for 2 min and then observed and analyzed under a Leica microscope.
# The animal procedures were approved by the Ethics Committee of the Experimental Animal Center of Jiangxi University of Chinese Medicine (Nanchang, China, SCXK 2016-0006) and conducted following the Guide for the Care and Use of Laboratory Animals. Four-week-old male BALB/c nude mice (weighing 16–17 g, SPF grade) were obtained from Shanghai Shrek Experimental Animal Co., Ltd. (Shanghai, China). The xenotransplantation model was established by subcutaneous injection of A549 or PC-9/GR cells in nude mice, which were collected with PBS and mixed with an equal volume of Matrigel at a final concentration of 1 × 10^7/ml. […] Measurements of tumor size and body weight were conducted every 2 days with a vernier caliper and an electronic balance. Nodule growth was quantified by using the following formula: tumor volume (mm^3) = (short-diameter)^2 × large-diameter × π/6.
# [8] = tested on: A549 cells; assay: Apoptosis by flow cytometry (Annexin V-FITC/PI), A549; type: cell-based, human; details: A549, 48 h, various concentrations, relative to control
# Description: as §2
smiles,measurement,setting,value
"CC1=CC(=O)[C@@H](O)[C@]2(C)[C@H]3[C@@H](O)[C@H](O)[C@@]4(CO)OC[C@@]35[C@@H](C[C@@H]12)OC(=O)[C@H](O)[C@]54O [BH, Bruceine H]",toxicity to LO2 cells,[1],no apparent toxicity
same,toxicity to 16HBE cells,[2],no apparent toxicity
same,late apoptotic rate,[3],increased
same,apoptosis of PC-9/GR cells,[4],little effects
same,IC50,"[5]; A549, 24 h, Figure 2A, read-out: IC50 (24h)",44.4 µM
same,IC50,"[5]; A549, 48 h, read-out: IC50 (48 h)",25.5 µM
same,IC50,"[6]; PC-9, 24 h, Figure 2A, read-out: IC50 (24h)",55.4 µM
same,IC50,"[6]; PC-9, 48 h, read-out: IC50",12.6 µM
same,growth of A549 xenografts,"[7]; 2.5 or 5 mg/kg intragastric, 16 days",significantly inhibited
same,"organ indexes of heart, kidney, liver, lung, spleen",[7]; A549 xenograft mice,no significant changes
same,body weight,"[7]; A549 xenograft mice, 2.5 and 5 mg/kg",without significant changes
same,Notch3 expression in tumor xenografts,"[7]; A549 xenografts, IHC, vs model group",decreased in a dose-dependent manner
same,number of Ki-67-positive cells in cancer tissues,"[7]; A549 xenografts, IHC, vs vehicle",decreased
same,"Notch3, β-catenin, and Bcl-2 protein levels in tumor tissues","[7]; A549 xenografts, Western blot",decreased
same,expression of FOXO3a in tumor tissues,"[7]; A549 xenografts, Western blot",increased
same,early apoptosis rate,[8],increased
